According to US10759817B2, “Gadolinium complex, method for synthesis of the gadolinium complex, and MRI contrast agent including the gadolinium complex” (Kyungpook National University Industry-Academic Cooperation …, priority 2018, dated 2020):

Experiment: Relaxibity (r1, r2) measurement by MRI at 1.5 T and 9.4 T
Assay type: physicochemical
Source text: In accordance with the present disclosure, the relaxibity (unit mM^−1 s^−1) is obtained using an inversion recovery according to the inversion time (T1). More specifically, signal intensities at varying inversion times T1 are acquired. Then, the signal intensities are subjected to a minimum non-linear fitting (NLF) to obtain the relaxation time (s). Then, the relaxibity (unit mM^−1 s^−1) is obtained using the relaxation time (s) and the concentration (mM) of the contrast agent. The gadolinium complex represented by the Chemical Formula 1 has the relaxibity defined as above which is at least 4 mM^−1 s^−1 not only in the normal magnetic field range of 1.5 T but also in the high magnetic field of 7 T or greater.
The relaxibity for the gadolinium complex GdL^b as obtained above was measured at magnetic field strengths of 1.5 T and 9.4 T respectively as follows.
T1 relaxation time was checked using inversion recovery according to various T1 (inversion times). […] The T2 relaxation time is determined as follows. […] For TEs, mean values of pixels for various spin-echo measurements were calculated using a nonlinear fitting method. Then, the T2 relaxation time was calculated using the spin-echo measurements. The relaxibity (mM^−1s^−1) was calculated as an inverse of a relaxation time (s) for the contrast agent 1 mM. We calculated r1 using the T1 relaxation time and r2 using the T2 relaxation time. […]

Q: Which “Relaxibity r1” value (magnetic field 1.5 T) does the source give for `O=C([O-])CN1CCN(CC(=O)[O-])CCN([C@H](CO)[C@H](O)CO)CCN(CC(=O)[O-])CC1.[Gd+3]` (racemic) [Gadovist ®, gadobutrol] here?
A: Its value is 4.06 mM⁻¹ s⁻¹.

Q: What about the “Relaxibity r1” value (magnetic field 9.4 T) of the same compound?
A: The value was 2.96 mM⁻¹ s⁻¹.
